Test results from patent US20140234455A1, “ANTIMICROBIAL COMPOSITION, METHOD FOR ITS PREPARATION AND ITS USE” (PATOLAB OY, priority 2011, published 2014).

How the values were obtained:
Format in all cases: cell-based
Settings in all cases: tested after one week washing, 24 hours incubation, Example 2 stock diluted 1:1 with tap water
[1] = test system: Staphylococcus aureus (MRSA); test: ISO 20645/20743 challenge test in accordance with EN 13697 on a steel plate
Enteroc. = test: Challenge test on a steel plate (EN 13697)
PS. aerug. = test: Challenge test on a steel plate (EN 13697)
C. albicans = test: Challenge test on a steel plate (EN 13697)
A. niger = test: Challenge test on a steel plate (EN 13697)
E. coli = test: Challenge test on a steel plate (EN 13697)
Procedure: The test was performed after one week washing the steel plate with the composition.

CCO [70% ethanol, ethanol]
log 1: Reduction in growth of microorganisms, MRSA (Staphylococcus aureus) [1] | Reduction in growth of microorganisms, Enteroc. (Enteroc.) | Reduction in growth of microorganisms, PS. aerug. (PS. aerug.) | Reduction in growth of microorganisms, C. albicans (C. albicans) | Reduction in growth of microorganisms, A. niger (A. niger) | Reduction in growth of microorganisms, E. coli (E. coli)
